Assay results as given in patent US20060293216A1, “Pharmaceutical compositions comprising an active agent and chitosan for sustained drug release or mucoadhesion” (ADVANCED BIOPOLYMERS AS, priority 2003, published 2006).
Each block holds one compound with its values, some of them ahead of it.

Experiments:
Assay type in all cases: physicochemical
[1] = Release of acetylsalicylic acid from chitosan (dialysis, UV); conditions: acetylsalicylic acid 100 mg, chitosan 250 mg, against tris buffer pH7
Protocol: Acetylsalicylic acid (100 mg) and chitosan (various degrees of acetylation) (250 mg) were added to a diluted aqueous HCl solution at pH 2 (10 ml). The mixture was stirred for 30 minutes at 80° C., cooled to room temperature, transferred to a dialysis tube (cut off 12-14 kDa) and dialysed against tris buffer pH7 (100 ml). The amount of acetylsalicylic acid in the dialysate was determined by UV.
(§1) An experiment without chitosan was performed as a comparison.
The amounts of acetylsalicylic acid in dialysate are shown in Table 1 as a percentage of maximum detected amounts.

[2] = Effect of chitosan on availability of norfloxacin (dialysis, UV); conditions: norfloxacin 100 mg, against tris buffer pH 7
Protocol: Norfloxacin (100 mg) and chitosan (FA=0.35, η=1250) (250 mg) were added to a diluted aqueous HCl solution pH 2 (10 ml). The mixture was stirred for 2 hours at 80° C., cooled to room temperature and dialysed against tris buffer pH 7 (100 ml). The amount of norfloxacin in dialysate was determined by UV.
as §1
The amounts of norfloxacin in dialysate are shown as a percentage of maximum detected amounts.

[3] = Release of salicylate through a dialysis membrane with and without chitosan; conditions: 30 mM salicylate in 154 mM NaCl, pH 4.5; 3 (w/v)% chitosan (FA 0.41, hydrochloride salt); FIG. 2
Protocol: The chitosan used in this Example was prepared from a chitosan produced as described in WO 03/011912 (FA 0.41, [η]=1060 ml/g), which was depolymerized and at the same time converted to the chitosan hydrochloride salt using 3M ethanolic HCl. Excess ethanolic chitosan was removed, the chitosan washed with excess 70% ethanol, 96% ethanol and finally dried to obtain the chitosan hydrochloride salt. The intrinsic viscosity was determined to 200 ml/g, corresponding to a number-average molecular weight of 40 000 (Anthonsen et al., 1993, Carbohydr. Polym. (1993) 22 193-201). 30 mM Salicylic acid was dissolved in distilled water upon addition of equimolar amounts of sodium hydroxide, and sodium chloride was added to a final concentration of 154 mM. The pH was adjusted to 4.5. Each of the solutions containing salicylate or paracetamol was added to a small glass vial (10 ml) equipped with a dialysis membrane (d=14.3 mm, cut off 10-12 kDa). The glass vials were placed in a 1 litre reservoir containing 154 mM NaCl, pH 4.5. Samples of 3.0 ml were regularly withdrawn from the reservoir and the absorbance was measured at 297.0 nm (salicylic acid) and 243.3 nm (paracetamol). Each experiment was run with 6 parallels. The same experiment was performed with paracetamol and the salicylate solutions to which had been added 3 (w/v)% of the chitosan. […]

[4] = Release of warfarin from warfarin/chitosan (dialysis, UV 293 nm); conditions: buffered solution pH 7.4
Protocol: The salt of warfarin/chitosan (from Example 7 above) (1.09 g) was suspended in a buffered solution with pH 7.4 (10 ml). The suspension was transferred into the dialysis tube (cut off 12-14 kDa) before the tube was transferred into a buffered solution of pH 7.4 (100 ml) under continuous stirring. 2 ml samples of the dialysate were taken at different times and the UV-absorbances measured with an UV-apparatus at 293 nm. As a control experiment, warfarin (0.38 g, 1.2 mmol) was dissolved in a buffered solution of pH 7.4 (10 ml) and transferred into the dialysis tube (cut off 12-14 kDa). 2 ml samples of the dialysate were taken at different times and the UV-absorbances measured with an UV-apparatus at 293 nm. The amounts of warfarin in dialysate are shown in Table 3 as a percentage of maximum detected amounts.

[5] = Release of paracetamol through a dialysis membrane with and without chitosan; conditions: 10 mM paracetamol in 154 mM NaCl, pH 4.5; 3 (w/v)% chitosan (FA 0.41, hydrochloride salt); followed for 2 days; FIG. 1
Protocol: The chitosan used in this Example was prepared from a chitosan produced as described in WO 03/011912 (FA 0.41, [η]=1060 ml/g), which was depolymerized and at the same time converted to the chitosan hydrochloride salt using 3M ethanolic HCl. Excess ethanolic chitosan was removed, the chitosan washed with excess 70% ethanol, 96% ethanol and finally dried to obtain the chitosan hydrochloride salt. The intrinsic viscosity was determined to 200 ml/g, corresponding to a number-average molecular weight of 40 000 (Anthonsen et al., 1993, Carbohydr. Polym. (1993) 22 193-201). 10 mM Paracetamol was dissolved in 154 mM NaCl at pH 4.5. Each of the solutions containing salicylate or paracetamol was added to a small glass vial (10 ml) equipped with a dialysis membrane (d=14.3 mm, cut off 10-12 kDa). The glass vials were placed in a 1 litre reservoir containing 154 mM NaCl, pH 4.5. Samples of 3.0 ml were regularly withdrawn from the reservoir and the absorbance was measured at 297.0 nm (salicylic acid) and 243.3 nm (paracetamol). Each experiment was run with 6 parallels. The same experiment was performed with paracetamol and the salicylate solutions to which had been added 3 (w/v)% of the chitosan. […] No difference in the release profile of the neutral drug paracetamol with and without chitosan could be detected.

SMILES: CC(=O)Oc1ccccc1C(=O)O [No chitosan, Acetylsalicylic acid]
amount of acetylsalicylic acid in dialysate ([1]; time for dialysis 0.25 hours): 52 percentage of maximum detected amounts
amount of acetylsalicylic acid in dialysate ([1]; time for dialysis 0.5 hours): 87 percentage of maximum detected amounts
amount of acetylsalicylic acid in dialysate ([1]; time for dialysis 1 hour): 97 percentage of maximum detected amounts
amount of acetylsalicylic acid in dialysate ([1]; time for dialysis 2 hours): 98 percentage of maximum detected amounts
amount of acetylsalicylic acid in dialysate ([1]; time for dialysis 19 hours): 99 percentage of maximum detected amounts

SMILES: CCn1cc(C(=O)O)c(=O)c2cc(F)c(N3CCNCC3)cc21 [Without chitosan, Norfloxacin]
amount of norfloxacin in dialysate ([2]; time for dialysis 0.25 hours): 66 percentage of maximum detected amounts
amount of norfloxacin in dialysate ([2]; time for dialysis 0.5 hours): 72 percentage of maximum detected amounts
amount of norfloxacin in dialysate ([2]; time for dialysis 1 hour): 100 percentage of maximum detected amounts
amount of norfloxacin in dialysate ([2]; time for dialysis 2 hours): 100 percentage of maximum detected amounts
amount of norfloxacin in dialysate ([2]; time for dialysis 4 hours): 100 percentage of maximum detected amounts

release of salicylate with and without chitosan [3]: clear difference
SMILES: O=C(O)c1ccccc1O [salicylate, Salicylic acid]

SMILES: CC(=O)CC(c1ccccc1)c1c(O)c2ccccc2oc1=O (stereo not shown) [Warfarin]
amount of warfarin in dialysate ([4]; time 2½ hours): 49.8 percentage of maximum detected amounts
amount of warfarin in dialysate ([4]; time 4 hours): 49.0 percentage of maximum detected amounts
amount of warfarin in dialysate ([4]; time 20 hours): 100 percentage of maximum detected amounts
amount of warfarin in dialysate ([4]; time ½ hours): 14.8 percentage of maximum detected amounts

release profile of paracetamol with and without chitosan [5]: No difference
SMILES: CC(=O)Nc1ccc(O)cc1 [paracetamol, Paracetamol]
